Test results taken from US12258328B2, “6-membered heteroaryl-containing aminopyridine compounds as EGFR inhibitors” (YUHAN CORPORATION, priority 2021, dated 2025).
Where two headings read alike, the source gives them in different places. One block for each compound: values may come before it.

Experiments:
EGFR del19/T790M/C797S = EGFR del19/T790M/C797S (Homo sapiens, UniProt P00533, C797S/DEL746-750/T790M); experiment: Biochemical EGFR kinase assay (Lance Ultra TR-FRET), triple mutant del19/T790M/C797S
Method in brief: (§1)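 Step 1: compound in kinase buffer, 0.003–10 μM. Step 2: kinase reaction 1 h at room temperature. Step 4: TR-FRET read at 615/665 nm; IC50 calculated.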

EGFR wildtype = EGFR wildtype (Homo sapiens, UniProt P00533); experiment: Biochemical EGFR kinase assay (Lance Ultra TR-FRET), wildtype
Method in brief: as §1

EGFR L858R/T790M/C797S = EGFR L858R/T790M/C797S (Homo sapiens, UniProt P00533, C797S/L858R/T790M); experiment: Biochemical EGFR kinase assay (Lance Ultra TR-FRET), triple mutant L858R/T790M/C797S
Method in brief: as §1

EGFR L858R/C797S = EGFR L858R/C797S (Homo sapiens, UniProt P00533, C797S/L858R); experiment: Biochemical EGFR kinase assay (Lance Ultra TR-FRET), double mutant L858R/C797S
Method in brief: as §1

EGFR del19/C797S = EGFR del19/C797S (Homo sapiens, UniProt P00533, C797S/DEL746-750); experiment: Biochemical EGFR kinase assay (Lance Ultra TR-FRET), double mutant del19/C797S
Method in brief: as §1

[1] = Km ATP, read-out: IC50 del19/T790M/C797S (nM) Km ATP
[2] = Km ATP, read-out: IC50 WT (nM) Km ATP
[3] = Km ATP, read-out: IC50 L858R/T790M/C797S (nM) Km ATP
[4] = Km ATP, read-out: IC50 L858R/C797S (nM) Km ATP
[5] = Km ATP, read-out: IC50 del19/C797S (nM) Km ATP
[6] = ATP at Km, read-out: IC50 del19/T790M/C797S, Km ATP
[7] = IC50 del19/T790M/C797S, 100 μM ATP
[8] = ATP at Km, read-out: IC50 WT, Km ATP
[9] = ATP at Km, read-out: IC50 L858R/T790M/C797S, Km ATP
[10] = ATP at Km, read-out: IC50 L858R/C797S, Km ATP
[11] = ATP at Km, read-out: IC50 del19/C797S, Km ATP
[12] = IC50 L858R/T790M/C797S, 100 μM ATP

Chain of EGFR wildtype (P00533 25-1210): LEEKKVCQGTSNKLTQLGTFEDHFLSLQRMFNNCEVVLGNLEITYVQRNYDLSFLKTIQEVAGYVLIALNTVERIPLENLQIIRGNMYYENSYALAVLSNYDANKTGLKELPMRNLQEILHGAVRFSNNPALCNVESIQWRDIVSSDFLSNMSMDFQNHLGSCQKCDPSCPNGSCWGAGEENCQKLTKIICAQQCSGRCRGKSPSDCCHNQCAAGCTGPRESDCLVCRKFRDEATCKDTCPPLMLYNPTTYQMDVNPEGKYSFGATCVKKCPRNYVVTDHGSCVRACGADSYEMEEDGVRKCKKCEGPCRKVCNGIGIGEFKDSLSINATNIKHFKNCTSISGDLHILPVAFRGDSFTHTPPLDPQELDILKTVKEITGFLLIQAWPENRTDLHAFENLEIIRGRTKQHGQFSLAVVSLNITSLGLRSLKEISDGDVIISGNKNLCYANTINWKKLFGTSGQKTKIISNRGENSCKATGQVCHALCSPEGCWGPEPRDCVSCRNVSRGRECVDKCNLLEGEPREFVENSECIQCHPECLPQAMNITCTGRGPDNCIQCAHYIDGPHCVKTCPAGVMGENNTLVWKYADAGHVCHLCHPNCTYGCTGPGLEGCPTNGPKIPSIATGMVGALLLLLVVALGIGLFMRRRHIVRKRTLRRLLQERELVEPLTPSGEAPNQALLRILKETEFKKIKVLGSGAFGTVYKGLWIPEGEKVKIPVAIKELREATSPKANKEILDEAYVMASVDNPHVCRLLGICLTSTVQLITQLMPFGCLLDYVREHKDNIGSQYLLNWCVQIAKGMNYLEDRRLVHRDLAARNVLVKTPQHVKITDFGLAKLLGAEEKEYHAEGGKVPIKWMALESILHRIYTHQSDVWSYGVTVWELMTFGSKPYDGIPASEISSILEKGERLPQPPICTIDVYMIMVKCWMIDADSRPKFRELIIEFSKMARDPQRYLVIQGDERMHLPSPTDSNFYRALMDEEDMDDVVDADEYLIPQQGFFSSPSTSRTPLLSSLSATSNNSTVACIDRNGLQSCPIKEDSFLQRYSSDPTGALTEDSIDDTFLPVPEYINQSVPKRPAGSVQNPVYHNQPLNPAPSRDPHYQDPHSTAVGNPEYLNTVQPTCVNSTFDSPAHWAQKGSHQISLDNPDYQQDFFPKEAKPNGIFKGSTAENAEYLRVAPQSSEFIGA
Chain of EGFR del19/T790M/C797S (P00533 with tags, fused parts or gaps DEL746-750/T790M/C797S): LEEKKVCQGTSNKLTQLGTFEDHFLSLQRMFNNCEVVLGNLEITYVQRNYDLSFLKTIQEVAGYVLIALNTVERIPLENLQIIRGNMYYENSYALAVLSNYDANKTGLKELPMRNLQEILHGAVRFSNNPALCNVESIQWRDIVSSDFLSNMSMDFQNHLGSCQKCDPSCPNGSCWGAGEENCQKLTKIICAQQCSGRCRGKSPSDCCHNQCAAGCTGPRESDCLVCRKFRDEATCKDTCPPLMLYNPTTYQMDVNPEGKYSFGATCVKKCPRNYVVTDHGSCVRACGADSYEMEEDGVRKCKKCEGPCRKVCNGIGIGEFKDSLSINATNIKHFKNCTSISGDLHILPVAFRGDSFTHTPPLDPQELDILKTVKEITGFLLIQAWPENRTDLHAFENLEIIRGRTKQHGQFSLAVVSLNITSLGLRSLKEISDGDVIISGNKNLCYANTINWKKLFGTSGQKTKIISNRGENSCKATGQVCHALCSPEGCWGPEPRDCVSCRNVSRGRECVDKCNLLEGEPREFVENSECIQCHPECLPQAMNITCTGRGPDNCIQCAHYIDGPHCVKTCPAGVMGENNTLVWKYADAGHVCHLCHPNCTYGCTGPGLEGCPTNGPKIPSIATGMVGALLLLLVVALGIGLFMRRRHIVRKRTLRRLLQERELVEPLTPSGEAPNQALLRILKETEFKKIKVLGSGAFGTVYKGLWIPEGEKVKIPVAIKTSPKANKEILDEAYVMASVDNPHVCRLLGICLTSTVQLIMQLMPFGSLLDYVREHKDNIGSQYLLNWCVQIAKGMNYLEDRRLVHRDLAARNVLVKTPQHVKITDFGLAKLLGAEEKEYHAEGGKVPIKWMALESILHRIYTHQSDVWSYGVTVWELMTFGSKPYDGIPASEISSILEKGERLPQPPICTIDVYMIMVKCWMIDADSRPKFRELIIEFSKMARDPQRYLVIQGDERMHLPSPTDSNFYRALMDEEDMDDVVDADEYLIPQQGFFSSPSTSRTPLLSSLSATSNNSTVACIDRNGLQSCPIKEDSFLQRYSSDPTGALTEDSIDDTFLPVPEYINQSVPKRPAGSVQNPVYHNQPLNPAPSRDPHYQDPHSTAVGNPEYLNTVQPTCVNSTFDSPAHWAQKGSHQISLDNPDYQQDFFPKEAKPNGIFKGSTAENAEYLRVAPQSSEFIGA
Chain of EGFR L858R/C797S (P00533 25-1210 C797S/L858R): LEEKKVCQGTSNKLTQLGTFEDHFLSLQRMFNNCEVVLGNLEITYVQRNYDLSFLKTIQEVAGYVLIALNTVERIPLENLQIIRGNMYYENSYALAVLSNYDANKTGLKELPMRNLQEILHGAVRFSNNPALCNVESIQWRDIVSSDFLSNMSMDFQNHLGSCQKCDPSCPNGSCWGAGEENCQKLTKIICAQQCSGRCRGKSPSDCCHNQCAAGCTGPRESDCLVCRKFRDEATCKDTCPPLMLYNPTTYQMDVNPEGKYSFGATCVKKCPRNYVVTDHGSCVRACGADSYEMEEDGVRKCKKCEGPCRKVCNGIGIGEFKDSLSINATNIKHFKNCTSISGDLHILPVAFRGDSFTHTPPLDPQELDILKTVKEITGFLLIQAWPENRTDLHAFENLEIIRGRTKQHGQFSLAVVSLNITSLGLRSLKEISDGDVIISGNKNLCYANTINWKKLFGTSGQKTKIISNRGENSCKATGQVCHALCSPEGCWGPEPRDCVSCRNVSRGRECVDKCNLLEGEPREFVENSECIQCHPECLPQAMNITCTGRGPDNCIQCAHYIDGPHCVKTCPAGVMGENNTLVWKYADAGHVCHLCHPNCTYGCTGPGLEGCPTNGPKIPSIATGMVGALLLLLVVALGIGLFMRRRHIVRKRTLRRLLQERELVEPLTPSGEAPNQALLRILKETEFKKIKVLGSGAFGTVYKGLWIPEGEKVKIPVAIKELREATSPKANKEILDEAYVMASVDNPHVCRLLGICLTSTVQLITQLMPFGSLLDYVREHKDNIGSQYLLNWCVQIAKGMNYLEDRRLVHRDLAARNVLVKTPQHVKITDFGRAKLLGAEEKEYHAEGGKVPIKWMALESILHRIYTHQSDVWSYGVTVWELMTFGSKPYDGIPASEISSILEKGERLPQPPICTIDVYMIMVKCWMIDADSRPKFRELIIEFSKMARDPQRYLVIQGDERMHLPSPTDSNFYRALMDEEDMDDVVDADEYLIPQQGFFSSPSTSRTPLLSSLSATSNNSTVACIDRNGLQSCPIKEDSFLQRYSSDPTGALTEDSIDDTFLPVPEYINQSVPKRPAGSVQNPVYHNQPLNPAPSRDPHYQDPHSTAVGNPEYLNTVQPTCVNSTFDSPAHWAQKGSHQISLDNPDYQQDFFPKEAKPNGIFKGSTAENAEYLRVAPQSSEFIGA
Chain of EGFR L858R/T790M/C797S (P00533 25-1210 T790M/C797S/L858R): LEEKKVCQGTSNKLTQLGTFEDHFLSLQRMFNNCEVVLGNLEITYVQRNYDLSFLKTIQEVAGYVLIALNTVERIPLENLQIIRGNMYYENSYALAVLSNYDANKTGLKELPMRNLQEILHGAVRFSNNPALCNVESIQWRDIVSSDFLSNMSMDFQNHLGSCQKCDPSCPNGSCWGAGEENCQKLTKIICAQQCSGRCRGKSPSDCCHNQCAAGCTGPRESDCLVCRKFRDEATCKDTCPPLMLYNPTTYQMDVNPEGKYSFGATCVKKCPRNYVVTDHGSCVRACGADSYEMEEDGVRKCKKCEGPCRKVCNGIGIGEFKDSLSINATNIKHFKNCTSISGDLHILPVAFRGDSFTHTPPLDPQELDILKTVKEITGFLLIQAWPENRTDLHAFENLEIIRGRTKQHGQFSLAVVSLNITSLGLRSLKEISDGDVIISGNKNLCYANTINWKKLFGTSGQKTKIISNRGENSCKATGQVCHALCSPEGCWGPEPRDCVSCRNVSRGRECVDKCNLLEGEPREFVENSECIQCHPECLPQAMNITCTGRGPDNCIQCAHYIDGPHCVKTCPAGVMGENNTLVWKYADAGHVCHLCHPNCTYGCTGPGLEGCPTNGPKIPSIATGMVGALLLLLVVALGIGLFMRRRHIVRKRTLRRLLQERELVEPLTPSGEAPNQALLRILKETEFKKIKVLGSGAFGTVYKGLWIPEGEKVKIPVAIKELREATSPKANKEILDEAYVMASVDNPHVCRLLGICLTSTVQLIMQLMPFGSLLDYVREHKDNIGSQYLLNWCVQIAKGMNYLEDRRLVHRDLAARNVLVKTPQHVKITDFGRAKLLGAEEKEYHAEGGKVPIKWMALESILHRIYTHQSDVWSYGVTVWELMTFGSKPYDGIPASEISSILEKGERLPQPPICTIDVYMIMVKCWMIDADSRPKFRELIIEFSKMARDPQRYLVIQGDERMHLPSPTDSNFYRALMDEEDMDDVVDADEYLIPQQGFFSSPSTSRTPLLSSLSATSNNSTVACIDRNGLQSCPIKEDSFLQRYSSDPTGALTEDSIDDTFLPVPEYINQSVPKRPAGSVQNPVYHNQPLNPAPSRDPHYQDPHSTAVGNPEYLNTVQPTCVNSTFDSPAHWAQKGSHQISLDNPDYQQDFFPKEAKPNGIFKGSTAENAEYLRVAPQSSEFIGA

Structure (SMILES): O=S(=O)(C1CC1)n1cc(-c2nccc(Nc3cc(N[C@H]4CC[C@@H](CO)CC4)c(-c4cnc(OC(F)F)cn4)cn3)n2)cn1 [Example 129, ((1s,4s)-4-((2-((2-(1-(Cyclopropylsulfonyl)-1H-pyrazol-4-yl)pyrimidin-4-yl)amino)-5-(5-(difluoromethoxy)pyrazin-2-yl)pyridin-4-yl)amino)cyclohexyl)methanol]
IC50 (EGFR del19/T790M/C797S; [1]): 1.4 nM
IC50 (EGFR wildtype; [2]): 116 nM
IC50 (EGFR L858R/T790M/C797S; [3]): 0.5 nM
IC50 (EGFR L858R/C797S; [4]): 12.9 nM
IC50 (EGFR del19/C797S; [5]): 12.6 nM

Structure (SMILES): CN(C)Cc1ccc(-c2cnc(Nc3ccnc(-c4cnn(S(=O)(=O)C5CC5)c4)n3)cc2N[C@H]2CC[C@@](C)(O)CC2)nc1 [Example 31, (1s,4s)-4-((6′-((2-(1-(Cyclopropylsulfonyl)-1H-pyrazol-4-yl)pyrimidin-4-yl)amino)-5-((dimethylamino)methyl)-[2,3′-bipyridin]-4′-yl)amino)-1-methylcyclohexan-1-ol]
IC50 (EGFR del19/T790M/C797S; IC50 del19/T790M/C797S (nM) 100 μM ATP, 100 μM ATP): 0.2 nM
IC50 (EGFR del19/T790M/C797S; [1]): 0.2 nM
IC50 (EGFR wildtype; IC50 WT (nM) 100 μM ATP, 100 μM ATP): 52.6 nM
IC50 (EGFR wildtype; [2]): 0.3 nM
IC50 (EGFR L858R/T790M/C797S; IC50 L858R/T790M/C797S (nM) 100 μM ATP, 100 μM ATP): 0.1 nM
IC50 (EGFR L858R/T790M/C797S; [3]): 0.1 nM
IC50 (EGFR L858R/C797S; IC50 L858R/C797S (nM) 100 μM ATP, 100 μM ATP): 0.8 nM
IC50 (EGFR L858R/C797S; [4]): 0.1 nM
IC50 (EGFR del19/C797S; IC50 del19/C797S (nM) 100 μM ATP, 100 μM ATP): 0.1 nM
IC50 (EGFR del19/C797S; [5]): 0.1 nM

Structure (SMILES): O=S(=O)(C1CC1)n1cc(-c2nccc(Nc3cc(N[C@H]4CC[C@@H](F)CC4)c(-c4ccc(N5CCOCC5)cn4)cn3)n2)cn1 [Example 123, N^6′-(2-(1-(Cyclopropylsulfonyl)-1H-pyrazol-4-yl)pyrimidin-4-yl)-N^4′-((1s,4s)-4-fluorocyclohexyl)-5-morpholino-[2,3′-bipyridine]-4′,6′-diamine]
IC50 (EGFR del19/T790M/C797S; [1]): 2.6 nM
IC50 (EGFR wildtype; [2]): 22 nM
IC50 (EGFR L858R/T790M/C797S; [3]): 0.7 nM
IC50 (EGFR L858R/C797S; [4]): 2.3 nM
IC50 (EGFR del19/C797S; [5]): 28.6 nM

Structure (SMILES): C[C@]1(O)CC[C@@H](Nc2cc(Nc3ccnc(-c4cnn(S(=O)(=O)C5CC5)c4)n3)ncc2-c2ccc(OC(F)(F)F)cn2)CC1 [Example 194, (1s,4s)-4-((6′-((2-(1-(Cyclopropylsulfonyl)-1H-pyrazol-4-yl)pyrimidin-4-yl)amino)-5-(trifluoromethoxy)-[2,3′-bipyridin]-4′-yl)amino)-1-methylcyclohexan-1-ol]
IC50 (EGFR del19/T790M/C797S; [6]): 2.5 nM
IC50 (EGFR del19/T790M/C797S; [7]): 3.4 nM
IC50 (EGFR wildtype; [8]): 36.7 nM
IC50 (EGFR wildtype; IC50 WT, 100 μM ATP): > 10000 nM
IC50 (EGFR L858R/T790M/C797S; [9]): 0.6 nM
IC50 (EGFR L858R/T790M/C797S; [12]): 2.2 nM
IC50 (EGFR L858R/C797S; [10]): 3.9 nM
IC50 (EGFR L858R/C797S; IC50 L858R/C797S, 100 μM ATP): 43.7 nM
IC50 (EGFR del19/C797S; [11]): 5.5 nM
IC50 (EGFR del19/C797S; IC50 del19/C797S, 100 μM ATP): 16.9 nM

Continued, values first:

IC50 (EGFR del19/T790M/C797S; [6]): 4.4 nM
IC50 (EGFR del19/T790M/C797S; [7]): 4.7 nM
IC50 (EGFR wildtype; [8]): 9.8 nM
IC50 (EGFR wildtype; IC50 WT, 100 μM ATP): > 10000 nM
IC50 (EGFR L858R/T790M/C797S; [9]): 1.6 nM
IC50 (EGFR L858R/C797S; [10]): 2.2 nM
IC50 (EGFR L858R/C797S; IC50 L858R/C797S, 100 μM ATP): 11.2 nM
IC50 (EGFR del19/C797S; [11]): 0.9 nM
IC50 (EGFR del19/C797S; IC50 del19/C797S, 100 μM ATP): 3.9 nM
Structure (SMILES): C[C@]1(O)CC[C@@H](Nc2cc(Nc3ccnc(-c4cnn(S(=O)(=O)C5CC5)c4)n3)ncc2-c2cc(NCCC(F)(F)F)ccn2)CC1 [Example 277, (1s,4s)-4-((6′-((2-(1-(Cyclopropylsulfonyl)-1H-pyrazol-4-yl)pyrimidin-4-yl)amino)-4-((3,3,3-trifluoropropyl)amino)-[2,3′-bipyridin]-4′-yl)amino)-1-methylcyclohexan-1-ol]

IC50 (EGFR del19/T790M/C797S; [6]): 0.1 nM
IC50 (EGFR del19/T790M/C797S; [7]): 0.2 nM
IC50 (EGFR wildtype; [8]): 0.2 nM
IC50 (EGFR wildtype; IC50 WT, 100 μM ATP): 99.2 nM
IC50 (EGFR L858R/T790M/C797S; [9]): 0.1 nM
IC50 (EGFR L858R/T790M/C797S; [12]): 0.2 nM
IC50 (EGFR L858R/C797S; [10]): 0.1 nM
IC50 (EGFR L858R/C797S; IC50 L858R/C797S, 100 μM ATP): 0.6 nM
IC50 (EGFR del19/C797S; [11]): 0.1 nM
IC50 (EGFR del19/C797S; IC50 del19/C797S, 100 μM ATP): 0.3 nM
Structure (SMILES): CN(C)CCOc1ccc(-c2cnc(Nc3ccnc(-c4cnn(S(=O)(=O)C5CC5)c4)n3)cc2N[C@H]2CC[C@@H](CO)CC2)nc1 [Example 209, ((1s,4s)-4-((6′-((2-(1-(Cyclopropylsulfonyl)-1H-pyrazol-4-yl)pyrimidin-4-yl)amino)-5-(2-(dimethylamino)ethoxy)-[2,3′-bipyridin]-4′-yl)amino)cyclohexyl)methanol]
